Laboratory results reported in PMC9386018, “A lymphatic-absorbed multi-targeted kinase inhibitor for myelofibrosis therapy” (Nature Communications, 2022).
“And” between values parts separate entries of the source, which are not always exact repeats. Equal entries are not always repeated.

Experiment: Pharmacokinetic analysis of plasma after intravenous and oral dosing
Conditions: for concentration at 0.167 h / concentration at 0.5 h / concentration at 1 h / concentration at 2 h / concentration at 4 h / concentration at 7 h / concentration at 16 h: female, CD-1, mouse, plasma

SMILES: O=C(O)c1ccc(F)c(F)c1Nc1ccc(I)cc1F [PD315209, reference compound]
- Concentration (Supplementary Figure 6a, i.v., Time 0.167 h, individual replicates): 779 ng/mL and 846 ng/mL
- Concentration (Supplementary Figure 6a, i.v., Time 0.5 h, individual replicates): 677 ng/mL and 624 ng/mL
- Concentration (Supplementary Figure 6a, i.v., Time 1 h, individual replicates): 440 ng/mL and 492 ng/mL
- Concentration (Supplementary Figure 6a, i.v., Time 2 h, individual replicates): 490 ng/mL and 355 ng/mL
- Concentration (Supplementary Figure 6a, i.v., Time 4 h, individual replicates): 243 ng/mL and 164 ng/mL
- Concentration (Supplementary Figure 6a, i.v., Time 7 h, individual replicates): 72.7 ng/mL and 57.8 ng/mL
- Concentration (Supplementary Figure 6a, i.v., Time 16 h, individual replicates): 4.08 ng/mL
- Concentration (Supplementary Figure 6a, i.v., Time 24 h, individual replicates): 5.08 ng/mL and 1.82 ng/mL and 2.98 ng/mL
- Concentration (Supplementary Figure 6a, p.o., Time 0.167 h, individual replicates): 507 ng/mL and 993 ng/mL and 283 ng/mL
- Concentration (Supplementary Figure 6a, p.o., Time 0.5 h, individual replicates): 891 ng/mL and 764 ng/mL
- Concentration (Supplementary Figure 6a, p.o., Time 1 h, individual replicates): 1540 ng/mL and 1240 ng/mL
- Concentration (Supplementary Figure 6a, p.o., Time 2 h, individual replicates): 490 ng/mL and 399 ng/mL
- Concentration (Supplementary Figure 6a, p.o., Time 4 h, individual replicates): 412 ng/mL and 334 ng/mL
- Concentration (Supplementary Figure 6a, p.o., Time 7 h, individual replicates): 463 ng/mL and 555 ng/mL
- Concentration (Supplementary Figure 6a, p.o., Time 16 h, individual replicates): 362 ng/mL and 491 ng/mL
- Concentration (Supplementary Figure 6a, p.o., Time 24 h, individual replicates): 443 ng/mL and 223 ng/mL and 212 ng/mL
- concentration at 0.167 h (iv, 15 mg kg^−1, Concentration, Supplementary Figure 6a, Time 0.167 h, individual replicates): 934 ng/mL
- concentration at 0.5 h (iv, 15 mg kg^−1, Concentration, Supplementary Figure 6a, Time 0.5 h, individual replicates): 923 ng/mL
- concentration at 1 h (iv, 15 mg kg^−1, Concentration, Supplementary Figure 6a, Time 1 h, individual replicates): 602 ng/mL
- concentration at 2 h (iv, 15 mg kg^−1, Concentration, Supplementary Figure 6a, Time 2 h, individual replicates): 572 ng/mL
- concentration at 4 h (iv, 15 mg kg^−1, Concentration, Supplementary Figure 6a, Time 4 h, individual replicates): 282 ng/mL
- concentration at 7 h (iv, 15 mg kg^−1, Concentration, Supplementary Figure 6a, Time 7 h, individual replicates): 99.2 ng/mL
- concentration at 16 h (iv, 15 mg kg^−1, Concentration, Supplementary Figure 6a, Time 16 h, individual replicates): 7.87 ng/mL
- concentration at 0.167 h (iv, 15 mg kg^−1, Concentration, Time 0.167 h, individual animals, Supplementary Figure 12a): 306 ng/mL
- concentration at 0.167 h (iv, 15 mg kg^−1, Concentration, Time 0.167 h, individual animals, Supplementary Figure 12b): 641 ng/mL
- concentration at 0.5 h (iv, 15 mg kg^−1, Concentration, Time 0.5 h, individual animals, Supplementary Figure 12a): 175 ng/mL
- concentration at 0.5 h (iv, 15 mg kg^−1, Concentration, Time 0.5 h, individual animals, Supplementary Figure 12b): 938 ng/mL
- concentration at 1 h (iv, 15 mg kg^−1, Concentration, Time 1 h, individual animals, Supplementary Figure 12a): 146 ng/mL
- concentration at 1 h (iv, 15 mg kg^−1, Concentration, Time 1 h, individual animals, Supplementary Figure 12b): 783 ng/mL
- concentration at 2 h (iv, 15 mg kg^−1, Concentration, Time 2 h, individual animals, Supplementary Figure 12a): 86.8 ng/mL
- concentration at 2 h (iv, 15 mg kg^−1, Concentration, Time 2 h, individual animals, Supplementary Figure 12b): 510 ng/mL
- concentration at 4 h (iv, 15 mg kg^−1, Concentration, Time 4 h, individual animals, Supplementary Figure 12b): 322 ng/mL
- concentration at 7 h (iv, 15 mg kg^−1, Concentration, Time 7 h, individual animals, Supplementary Figure 12a): 22.8 ng/mL
- concentration at 0.167 h (po, 200 mg kg^−1, Concentration, Time 0.167 h, individual animals, Supplementary Figure 12a): 155 ng/mL
- concentration at 0.5 h (po, 200 mg kg^−1, Concentration, Time 0.5 h, individual animals, Supplementary Figure 12a): 968 ng/mL
- concentration at 0.5 h (po, 200 mg kg^−1, Concentration, Time 0.5 h, individual animals, Supplementary Figure 12b): 692 ng/mL
- concentration at 1 h (po, 200 mg kg^−1, Concentration, Time 1 h, individual animals, Supplementary Figure 12b): 841 ng/mL
- concentration at 2 h (po, 200 mg kg^−1, Concentration, Time 2 h, individual animals, Supplementary Figure 12a): 2500 ng/mL
- concentration at 4 h (po, 200 mg kg^−1, Concentration, Time 4 h, individual animals, Supplementary Figure 12a): 3420 ng/mL
- concentration at 7 h (po, 200 mg kg^−1, Concentration, Time 7 h, individual animals, Supplementary Figure 12a): 1870 ng/mL
- concentration at 7 h (po, 200 mg kg^−1, Concentration, Time 7 h, individual animals, Supplementary Figure 12b): 1070 ng/mL
- concentration at 16 h (po, 200 mg kg^−1, Concentration, Time 16 h, individual animals, Supplementary Figure 12b): 2410 ng/mL
- concentration at 0.5 h (po, 400 mg kg^−1, Concentration, Supplementary Figure 6a, Time 0.5 h, individual replicates): 644 ng/mL
- concentration at 1 h (po, 400 mg kg^−1, Concentration, Supplementary Figure 6a, Time 1 h, individual replicates): 1700 ng/mL
- concentration at 2 h (po, 400 mg kg^−1, Concentration, Supplementary Figure 6a, Time 2 h, individual replicates): 787 ng/mL
- concentration at 4 h (po, 400 mg kg^−1, Concentration, Supplementary Figure 6a, Time 4 h, individual replicates): 398 ng/mL
- concentration at 7 h (po, 400 mg kg^−1, Concentration, Supplementary Figure 6a, Time 7 h, individual replicates): 473 ng/mL
- concentration at 16 h (po, 400 mg kg^−1, Concentration, Supplementary Figure 6a, Time 16 h, individual replicates): 572 ng/mL
- Concentration (i.v., Time 0.167 h, individual animals, Supplementary Figure 12a): 324 ng/mL and 426 ng/mL
- Concentration (i.v., Time 0.5 h, individual animals, Supplementary Figure 12a): 148 ng/mL and 180 ng/mL
- Concentration (i.v., Time 1 h, individual animals, Supplementary Figure 12a): 168.8 ng/mL and 187.8 ng/mL
- Concentration (i.v., Time 1 h, individual animals, Supplementary Figure 12b): 1480 ng/mL and 1110 ng/mL
- Concentration (i.v., Time 2 h, individual animals, Supplementary Figure 12a): 50 ng/mL and 64 ng/mL
- Concentration (i.v., Time 2 h, individual animals, Supplementary Figure 12b): 498 ng/mL and 604 ng/mL
- Concentration (i.v., Time 4 h, individual animals, Supplementary Figure 12a): 45.8 ng/mL and 21 ng/mL and 26 ng/mL
- Concentration (i.v., Time 4 h, individual animals, Supplementary Figure 12b): 244 ng/mL and 464 ng/mL
- Concentration (i.v., Time 7 h, individual animals, Supplementary Figure 12a): 12.78 ng/mL
- Concentration (i.v., Time 7 h, individual animals, Supplementary Figure 12b): 206 ng/mL and 134 ng/mL and 272 ng/mL
- Concentration (i.v., Time 16 h, individual animals, Supplementary Figure 12b): 25.9 ng/mL and 66.9 ng/mL and 61.2 ng/mL
- Concentration (i.v., Time 24 h, individual animals, Supplementary Figure 12b): 6.26 ng/mL and 32.6 ng/mL and 25 ng/mL
- Concentration (p.o., Time 0.167 h, individual animals, Supplementary Figure 12a): 145.8 ng/mL and 107.6 ng/mL and 206 ng/mL and 132.6 ng/mL and 193 ng/mL
- Concentration (p.o., Time 0.167 h, individual animals, Supplementary Figure 12b): 181 ng/mL
- Concentration (p.o., Time 0.5 h, individual animals, Supplementary Figure 12a): 788 ng/mL and 600 ng/mL
- Concentration (p.o., Time 1 h, individual animals, Supplementary Figure 12a): 1006 ng/mL and 784 ng/mL and 260 ng/mL and 1464 ng/mL and 1172 ng/mL and 1344 ng/mL
- Concentration (p.o., Time 2 h, individual animals, Supplementary Figure 12a): 2100 ng/mL and 1302 ng/mL
- Concentration (p.o., Time 4 h, individual animals, Supplementary Figure 12a): 2980 ng/mL and 1762 ng/mL
- Concentration (p.o., Time 7 h, individual animals, Supplementary Figure 12a): 1768 ng/mL and 1234 ng/mL
- Concentration (p.o., Time 16 h, individual animals, Supplementary Figure 12a): 414 ng/mL and 996 ng/mL and 1288 ng/mL
- Concentration (p.o., Time 24 h, individual animals, Supplementary Figure 12a): 996 ng/mL and 508 ng/mL and 280 ng/mL
